The text below walks through data of paper PMC5474674, “D-BMAP18 Antimicrobial Peptide Is Active In vitro, Resists to Pulmonary Proteases but Loses Its Activity in a Murine Model of Pseudomonas aeruginosa Lung Infection” (Frontiers in Chemistry, 2017).

Where a SMILES comes first, the peptide text is derived from it. A value given as a limit tells only on which side of the number the result lay.

For data set [1] the following is noted: cited from earlier work. As for the experimental part: D-BMAP18 was synthesized to provide a molecule more resistant to enzymatic cleavage. The stability of D-BMAP18 was tested in murine BAL fluid.
For data set [2], the system named is P. aeruginosa RP73. The data set is classed as in vivo, mouse. The note with it: 10 mg/kg intratracheal, day 1. On the procedure: C57/Bl6NCrl mice (n = 8/group) were intratracheally challenged with 1 × 10^7 cells P. aeruginosa RP73 clinical strain, and 5 min later a single dose of D-BMAP18 at different concentrations (0.5, 1, and 2 mg/kg) was intratracheally administrated. Sterile distilled water alone or tobramycin [10 mg/kg] (Sigma-Aldrich S.r.l.), were used respectively as negative and positive control. […] Subsequently, lungs were homogenized (24,000 rpm) on ice in 1 ml of sterile PBS by using Ultra-Turrax T25-Basic homogenizer (IKA-Werke GmbH & Co. KG, Germany). Ten-fold serial dilutions of lung homogenates were plated on MH agar (Oxoid SpA), and the number of colony-forming units (CFU) was counted after incubation at 37°C for 24 h.

`CC(C)C[C@H](NC(=O)[C@H](CCCCN)NC(=O)[C@H](CCCCN)NC(=O)[C@H](Cc1ccccc1)NC(=O)[C@H](CC(C)C)NC(=O)[C@H](CCCCN)NC(=O)[C@H](CCCCN)NC(=O)[C@H](Cc1ccccc1)NC(=O)[C@H](CCCCN)NC(=O)[C@H](CCCCN)NC(=O)[C@H](CCCNC(=N)N)NC(=O)[C@H](Cc1ccccc1)NC(=O)[C@H](CCCNC(=N)N)NC(=O)[C@H](CCCCN)NC(=O)[C@H](Cc1ccccc1)NC(=O)[C@H](CCCNC(=N)N)NC(=O)CN)C(=O)N[C@@H](CO)C(N)=O` [L-BMAP18] (H-GRFKRFRKKFKKLFKKLS-NH2): in data set [1], the “degradation in murine BAL after 10 min” value is given as “most of the L-BMAP-18 was digested” and the “time within which peptide is degraded by pulmonary proteases in murine BAL” value is on record as at most 20 min.

The term mortality denotes the share of the test organisms that died. Read a high mortality as a strong lethal effect. Regarding `NC[C@H]1O[C@H](O[C@H]2[C@H](O)[C@@H](O[C@H]3O[C@H](CO)[C@@H](O)[C@H](N)[C@H]3O)[C@H](N)C[C@@H]2N)[C@H](N)C[C@@H]1O` [tobramycin], the “effect on bacterial load in murine lungs” value in data set [2] is on record as “weak effect”. The compound also gave a mortality in data set [2] (1 out of 8 mice) of 12.5%.
